ChEMBL document CHEMBL3045140, “Synthesis, docking studies and antioxidant activity of some chalcone and aurone derivatives” (Med Chem Res, 2013)
Converted amounts (≈) assume the structure as drawn.

Legend:
Type in all cases: functional
[1] = system: Radical scavenging activity; assay: Antioxidant activity assessed as DPPH free radical scavenging activity after 30 min by spectrophotometeric analysis
[2] = Antioxidant activity assessed as iron chelating activity after 10 min by spectrophotometeric analysis
[3] = Antioxidant activity assessed as reduction of Fe3+ to Fe2+ after 20 min by spectrophotometeric analysis
[4] = Antioxidant activity assessed as H2O2 scavenging activity after 10 min by spectrophotometeric analysis

| Compound | Activity [1] | IC50 [1] [µg/mL] | IC50 [2] [µg/mL] | IC50 [3] [µg/mL] | Activity [4] | IC50 [4] [µg/mL] |
| --- | --- | --- | --- | --- | --- | --- |
| CN(C)c1ccc(/C=C2\Oc3cc(O)ccc3C2=O)cc1 | Dose-dependent effect | 109.92 (≈ 391 µM) | 179.33 (≈ 637 µM) | 70.1 (≈ 249 µM) | Dose-dependent effect | 193.91 (≈ 689 µM) |
| COc1ccc(/C=C/C(=O)c2ccc(O)cc2O)cc1OC | Dose-dependent effect | 35.2 (≈ 117 µM) | 166.73 (≈ 555 µM) | 134.45 (≈ 448 µM) | Dose-dependent effect | 70.1 (≈ 233 µM) |
| O=C(/C=C/c1ccc(Cl)cc1)c1ccc(O)cc1O | Dose-dependent effect | 264.95 (≈ 964 µM) | 159.97 (≈ 582 µM) | 155.87 (≈ 567 µM) | Dose-dependent effect | 129.02 (≈ 470 µM) |
| CN(C)c1ccc(/C=C/C(=O)c2cc(O)ccc2O)cc1 | Dose-dependent effect | 24.32 (≈ 85.8 µM) | 90.81 (≈ 321 µM) | 47.79 (≈ 169 µM) | Dose-dependent effect | 153.85 (≈ 543 µM) |
| O=C1/C(=C/c2ccc(Cl)cc2)Oc2cc(O)ccc21 [6-HYDROXY-4'-CHLORO AURONE] | Dose-dependent effect | 266.12 (≈ 976 µM) | 179.18 (≈ 657 µM) | 188.31 (≈ 691 µM) | Dose-dependent effect | 178.13 (≈ 653 µM) |
| COc1ccc(/C=C2\Oc3ccc(O)cc3C2=O)cc1OC [5-HYDROXY-3',4'-DIMETHOXY AURONE] | Dose-dependent effect | 222.19 (≈ 745 µM) | 185.05 (≈ 620 µM) | 151.43 (≈ 508 µM) | Dose-dependent effect | 206.57 (≈ 693 µM) |
| O=C1O[C@H]([C@@H](O)CO)C(O)=C1O [ASCORBIC ACID] | – | 98.77 (≈ 561 µM) | 126.12 (≈ 716 µM) | 53.24 (≈ 302 µM) | – | 445.92 (≈ 2530 µM) |
| COc1ccc(/C=C/C(=O)c2cc(O)ccc2O)cc1OC | Dose-dependent effect | 132.22 (≈ 440 µM) | 159.22 (≈ 530 µM) | 111.79 (≈ 372 µM) | Dose-dependent effect | 89.59 (≈ 298 µM) |
| COc1ccc(/C=C2\Oc3cc(O)ccc3C2=O)cc1OC | Dose-dependent effect | 173.29 (≈ 581 µM) | 213.83 (≈ 717 µM) | 168.23 (≈ 564 µM) | Dose-dependent effect | 248.16 (≈ 832 µM) |
| CN(C)c1ccc(/C=C/C(=O)c2ccc(O)cc2O)cc1 | Dose-dependent effect | 65.8 (≈ 232 µM) | 140.16 (≈ 495 µM) | 53.6 (≈ 189 µM) | Dose-dependent effect | 135.88 (≈ 480 µM) |
| CN(C)c1ccc(/C=C2\Oc3ccc(O)cc3C2=O)cc1 | Dose-dependent effect | 243 (≈ 864 µM) | 149.98 (≈ 533 µM) | 64.16 (≈ 228 µM) | Dose-dependent effect | 174.07 (≈ 619 µM) |
